Reference: patent US20230077155A1, “TETRAHYDROISOQUINOLINE COMPOUND AS POTASSIUM CHANNEL MODULATOR AND PREPARATION AND APPLICATION THEREOF” (Shanghai Zhimeng Biopharma, Inc., priority 2020, published 2023)

Legend:
[1] = molecular target: T1, KCNQ2 potassium channel (CHO-KCNQ2 cells) (Homo sapiens, UniProt O43526); experiment: Potassium ion channel opener activity test (FDSS/μCELL detection, FluxOR thallium flux); format: cell-based; conditions: for Maximum agonist rate (%): highest test concentration 100 μM
T1 construct: expressed in transfected cells; host or cells: CHO cells stably expressing KCNQ2, kept under G418 selection
Method: Potassium Ion Channel Opener Activity Test (FDSS/μCELL Detection)
1.1 Experimental procedure
Cell preparation: CHO-KCNQ2 cells were cultured in a 175 cm^2 culture flask, and when the cell density grew to 60-80%, the culture medium was removed, washed with 7 mL PBS (Phosphate Buffered Saline) once, then 3 mL 0.25% Trypsin was added to digest. After the digestion was completed, 7 mL culture medium (90% DMEM/F12+10% FBS±500 μg/mL G418) was added to neutralize, centrifugated for 3 minutes at 800 rpm. The supernatant was aspirated, then 5 mL culture medium was added to resuspend, and then the cells were counted.
Cell plating: according to the results of cell counting, the density was adjusted to 3×10^4 cells/well. After standing at room temperature for 30 minutes, the plate was placed in a 37° C. CO2 incubator and incubated overnight for 16-18 hours. The cell density reached about 80%.
Fluorescent dye incubation: the cell culture medium was discarded, 80 μL/well loading buffer was added, and incubated in the dark at room temperature for 60 minutes. Compound incubation: the loading buffer was discarded, 80 μL/well prepared compound solution was added, and incubated in the dark at room temperature for 20 minutes.
Fluorescence data collection: FDSS/μCELL instrument was used for real-time fluorescence signal recording with excitation wavelength at 480 nm and emission wavelength at 540 nm, recorded 1 time per second, and 20 μL/well stimulation buffer was started to add after recording for 10 seconds for baseline, and then continued to record until the end of 180 seconds.
The above buffer come from a commercially available kit named FluxOR potassium ion channel assay.
20 mM DMSO compound mother liquor was prepared, 10 μL of 20 mM compound mother liquor was took into 20 μL DMSO solution, serially diluted 3 times to 8 intermediate concentrations; then the intermediate concentrations of the compound was took out and added to the test buffer, diluted for 200 times to get the final concentration to be tested, 80 μL was took out and added to the test plate.
The highest test concentration was 100 μM, followed by […], 33.33, 11.11, 3.70, 1.23, 0.41, 0.137, 0.045 μM, total 8 concentrations. Each concentration set 3 duplicate wells.
This concentration of DMSO has no effect on the KCNQ2 potassium channel.
Experimental data was analyzed by Excel 2007 and GraphPad Prism 5.0 software, and the ratio of 180 seconds was calculated to calculate the agonism effect. The agonism effect of the compound was calculated by the following formula: […]
Reagent: FluxORTM Detection Kit (Invitrogen, Cat #F0017)
The experimental data in the report must meet the following criteria: Z′ Factor>0.5
2. Results: See Table 1, wherein the smaller the EC50 is, the higher the activity of the corresponding compound is.

[2] = Pharmacokinetics of rats, single intravenous and oral administration, plasma; format: in vivo; conditions: male SD rats; for F: gavage 5 mg/kg vs intravenous 0.3 mg/kg; for AUC(0-inf) / AUC(0-t) / Cmax / Tmax / half-life: rat, plasma
Method: Study on Pharmacokinetics of Rats
1) Research purpose: To obtain the pharmacokinetic characteristics of the compounds to be tested in male SD rats.
(§1) Pharmacokinetic study: 6 healthy male SD rats (SPF grade) were divided into 2 groups and 3 rats/group. After fasting overnight (only oral administration group), compound A was administrated 0.3 mg/kg intravenously and 5 mg/kg orally, blood was collected by jugular vein puncture at time points 0.083 (IV only), 0.25, 0.5, 1, 2, 4, 6 (PO only), 8 and 24 hours, and at least 0.3 mL of whole blood was collected to EDTA-K2 anticoagulant tube. Plasma was centrifuged (6000 rmp, 8 minutes, 4° C.) within half an hour and frozen at −20° C. for later use.
(§2) Experimental results: According to the blood drug concentration data obtained, the non-compartmental model of WinNonlin® 7.0 software (Pharsight, USA) was used to calculate the pharmacokinetic parameters after administration.

[3] = Brain-blood ratio study in mice after single oral administration; format: in vivo; conditions: mouse, brain and plasma, male ICR mice, single oral 10 mg/kg, read-out: Cerebral blood ratio; for Kp at 2 h: time point 2 h; for Kp at 4 h: time point 4 h
Method: Brain-blood ratio study: 6 healthy male ICR mice (body weight range 18-22 g) were taken and divided into 2 groups and 3 mice/group. After fasting overnight, the compound to be tested (10 mg/kg) was administrated orally respectively. Blood was taken through cardiac puncture at time points 2 and 4 hours, at least 0.5 mL of whole blood was collected to EDTA-K2 anticoagulant tube. Plasma was centrifuged (6000 rpm, 8 minutes, 4° C.) within half an hour and frozen at −20° C. for later use. At the same time, the brain tissue was collected, rinsed with normal saline, then sucked to dryness with absorbent paper, weighed, and frozen at −20° C. for later use.
The cerebral blood ratio is very important to nerve drugs, and it can be seen from Table 3 that the compounds of the present invention have excellent cerebral blood ratio, which will bring better drug efficacy and excellent safety. By comparing the cerebral blood ratios of compound A, compound 1, compound B and compound J, it can be seen that after the tert-butyl of compound A or compound B has been changed into […]

[4] = Pharmacokinetics of mice, single intravenous and oral administration, plasma; format: in vivo; conditions: male ICR mice; for F: gavage 10 mg/kg vs intravenous; for AUC(0-inf) / AUC(0-t) / Cmax / Tmax / half-life: mouse, plasma
Method: Study on Pharmacokinetics of Mice
1) Research purposes: In order to obtain the pharmacokinetic characteristics and blood-brain barrier of the tested compound in male ICR mice
as §1, with “Six” for “Pharmacokinetic study: 6”, “ICR mice (body weight range 18-22 g)” for “SD rats (SPF grade)”, “were taken and” for “were”, “mice/group.” for “rats/group.”, “[…],” for “compound A was administrated 0.3 mg/kg intravenously and 5 mg/kg orally,”, “rpm,” for “rmp,”
as §2

[5] = intravenous 1 mg/kg (footnote *)

T1 sequence (O43526 whole entry): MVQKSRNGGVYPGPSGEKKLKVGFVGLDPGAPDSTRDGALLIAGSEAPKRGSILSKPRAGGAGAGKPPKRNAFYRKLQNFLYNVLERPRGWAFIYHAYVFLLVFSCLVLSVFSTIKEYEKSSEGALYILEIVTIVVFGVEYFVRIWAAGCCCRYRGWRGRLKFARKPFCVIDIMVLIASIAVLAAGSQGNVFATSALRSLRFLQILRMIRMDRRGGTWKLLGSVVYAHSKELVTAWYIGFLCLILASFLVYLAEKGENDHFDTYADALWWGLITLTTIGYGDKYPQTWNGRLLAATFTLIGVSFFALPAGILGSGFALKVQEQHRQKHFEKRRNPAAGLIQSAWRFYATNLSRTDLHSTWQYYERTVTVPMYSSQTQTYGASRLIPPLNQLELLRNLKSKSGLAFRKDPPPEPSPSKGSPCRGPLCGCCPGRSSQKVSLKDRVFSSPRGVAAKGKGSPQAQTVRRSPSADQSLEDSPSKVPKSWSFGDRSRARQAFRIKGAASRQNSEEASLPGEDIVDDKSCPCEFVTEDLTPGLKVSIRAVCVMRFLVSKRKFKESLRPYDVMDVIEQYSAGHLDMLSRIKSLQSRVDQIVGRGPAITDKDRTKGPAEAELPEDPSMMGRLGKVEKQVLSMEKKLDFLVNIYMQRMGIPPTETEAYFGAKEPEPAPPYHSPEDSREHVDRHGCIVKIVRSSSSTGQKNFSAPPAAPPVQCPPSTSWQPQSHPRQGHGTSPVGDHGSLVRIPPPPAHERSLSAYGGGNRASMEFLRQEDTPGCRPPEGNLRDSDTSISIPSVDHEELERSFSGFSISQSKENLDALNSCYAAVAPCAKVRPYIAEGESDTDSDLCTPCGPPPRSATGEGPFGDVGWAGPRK

SMILES: Cc1cc2c(c(C)c1NC(=O)CC1(C)CC1)CCN(c1ccccc1F)C2 [Compound A1]
- EC50 [1]: 730 nM
- Maximum agonist rate (%) [1]: 35.84%

SMILES: Cc1cc2c(c(C)c1NC(=O)CC1(C)CC1)CCCN(c1ccc(F)cc1)C2 [Compound A2]
- EC50 [1]: 130 nM
- Maximum agonist rate (%) [1]: 44.53%

SMILES: [2H]C1([2H])c2cc(C)c(NC(=O)CC3(C)CC3)c(C)c2CCN1c1ccc(C(F)(F)F)cc1 [Compound A3]
- EC50 [1]: 210 nM
- Maximum agonist rate (%) [1]: 36.16%

SMILES: Cc1cc2c(c(C)c1NC(=O)CC1(C)CC1)CCN(c1cccc(C(F)(F)F)c1)C2 [Compound A4]
- EC50 [1]: 270 nM
- Maximum agonist rate (%) [1]: 48.11%

SMILES: Cc1cc2c(c(C)c1NC(=O)CC1CC(F)(F)C1)CCN(c1ccc(F)cc1)C2 [Compound A5]
- EC50 [1]: 49 nM
- Maximum agonist rate (%) [1]: 34.41%

SMILES: Cc1cc2c(c(C)c1NC(=O)CC1(C(F)(F)F)CC1)CCN(c1ccc(F)cc1)C2 [Compound A6]
- EC50 [1]: 290 nM
- Maximum agonist rate (%) [1]: 17.08%

SMILES: Cc1cc2c(c(C)c1NC(=O)CCC1CC1)CCN(c1ccc(F)cc1)C2 [Compound A7]
- EC50 [1]: 400 nM
- Maximum agonist rate (%) [1]: 35.92%

SMILES: Cc1cc2c(c(C)c1NC(=O)CC(C)(C)C)CCN(c1ccc(F)cc1)C2 [Compound A]
- F [2]: 38.93%
- AUC(0-inf) ([2]; po, gavage 5 mg/kg): 1280 ng·h/mL
- AUC(0-t) ([2]; po, gavage 5 mg/kg): 909 ng·h/mL
- Cmax ([2]; po, gavage 5 mg/kg): 154 ng/mL
- Tmax ([2]; po, gavage 5 mg/kg): 90 min
- half-life ([2]; po, gavage 5 mg/kg): 184 min
- AUC(0-inf) ([2]; intravenous 0.3 mg/kg): 144 ng·h/mL
- AUC(0-t) ([2]; intravenous 0.3 mg/kg): 140 ng·h/mL
- Cmax ([2]; intravenous 0.3 mg/kg): 332 ng/mL
- Tmax ([2]; intravenous 0.3 mg/kg): 4.8 min
- half-life ([2]; intravenous 0.3 mg/kg): 59.4 min
- Kp at 2 h [3]: 2.3
- Kp at 4 h [3]: 2.8
- EC50 [1]: 440 nM
- Maximum agonist rate (%) [1]: 37.97%
- F [4]: 33.79%
- AUC(0-inf) ([4]; po, gavage 10 mg/kg): 793 ng·h/mL
- AUC(0-t) ([4]; po, gavage 10 mg/kg): 792 ng·h/mL
- Cmax ([4]; po, gavage 10 mg/kg): 142 ng/mL
- Tmax ([4]; po, gavage 10 mg/kg): 40.2 min
- half-life ([4]; po, gavage 10 mg/kg): 157 min
- AUC(0-inf) ([4]; intravenous 0.5 mg/kg): 118 ng·h/mL
- AUC(0-t) ([4]; intravenous 0.5 mg/kg): 117 ng·h/mL
- Cmax ([4]; intravenous 0.5 mg/kg): 270 ng/mL
- Tmax ([4]; intravenous 0.5 mg/kg): 4.8 min
- half-life ([4]; intravenous 0.5 mg/kg): 59.4 min

SMILES: Cc1cc2c(c(C)c1NC(=O)CC(C)(C)C)CCN(c1ccc(F)cc1F)C2 [Compound B]
- F [2]: 43.63%
- AUC(0-inf) ([2]; po, gavage 5 mg/kg): 1080 ng·h/mL
- AUC(0-t) ([2]; po, gavage 5 mg/kg): 1070 ng·h/mL
- Cmax ([2]; po, gavage 5 mg/kg): 128 ng/mL
- Tmax ([2]; po, gavage 5 mg/kg): 240 min
- half-life ([2]; po, gavage 5 mg/kg): 208 min
- AUC(0-inf) ([2]; intravenous 0.3 mg/kg): 149 ng·h/mL
- AUC(0-t) ([2]; intravenous 0.3 mg/kg): 147 ng·h/mL
- Cmax ([2]; intravenous 0.3 mg/kg): 352 ng/mL
- Tmax ([2]; intravenous 0.3 mg/kg): 4.8 min
- half-life ([2]; intravenous 0.3 mg/kg): 120 min
- Kp at 2 h [3]: 0.99
- Kp at 4 h [3]: 0.72
- EC50 [1]: 160 nM
- Maximum agonist rate (%) [1]: 37.5%
- F [4]: 88.56%
- AUC(0-inf) ([4]; po, gavage 10 mg/kg): 1430 ng·h/mL
- AUC(0-t) ([4]; po, gavage 10 mg/kg): 1400 ng·h/mL
- Cmax ([4]; po, gavage 10 mg/kg): 776 ng/mL
- Tmax ([4]; po, gavage 10 mg/kg): 15 min
- half-life ([4]; po, gavage 10 mg/kg): 158 min
- AUC(0-inf) [4, 5]: 161 ng·h/mL
- AUC(0-t) [4, 5]: 158 ng·h/mL
- Cmax [4, 5]: 405 ng/mL
- Tmax [4, 5]: 4.8 min
- half-life [4, 5]: 56.4 min

SMILES: C#Cc1ccc(N2CCc3c(cc(C)c(NC(=O)CC(C)(C)C)c3C)C2)cc1 [Compound D]
- EC50 [1]: 450 nM
- Maximum agonist rate (%) [1]: 29.51%
